In US11241442B2, “Methods of use for TRP channel antagonist-based combination cancer therapies” (President and Fellows of Harvard College, priority 2017, dated 2022):

Columns and labels:
HCC1569 spheroids = assay: [H2O2]i by Hyper-2 in HCC1569 spheroids; type: cell-based; details: AP-18, 300 nM A-967079 or 5 mM NAC
Procedure: (§1) For the measurement of [H2O2]i levels in MCF-10A acini and HCC1569 spheroids, cells were transduced with a lentiviral vector encoding Hyper-2 or Hyper-2 (C199S). The Hyper-2 fluorescence was measured at 37° C. in HEPES-buffered saline (HBS) containing the following (in mM): 150 NaCl, 6 KCl, 1.2 MgSO4, 2 CaCl2, 11.5 glucose, and 25 HEPES (pH adjusted to 7.4 with NaOH). Fluorescence images of the cells were acquired through the Eclipse Ti-E microscope (Nikon) with ORCA-R2 cooled CCD camera (Hamamatsu Photonics) and analyzed with Metafluor image acquisition software (Molecular Devices). The 488:405-nm ratio images were obtained on a pixel-by-pixel basis. 3D images are shown as one section from midstructure. For the measurement of [H2O2]i levels in MCF-10A cells cultured in suspension, cell clumps were dissociated with trypsin and stained with 10 μM peroxy green-1 for 30 min at 37° C. Cells were then subjected to flow cytometric analysis (FACSCalibur; BD Biosciences). ROS levels determined by flow cytometry are reported as mean fluorescence intensity expressed in arbitrary units. Hyper-2 ratio images are representative from two independent experiments and averaged Hyper-2 ratio represents mean±SD from the sum of two independent experiments.

TRPA1 [1] = target: T1, TRPA1 (Homo sapiens, UniProt O75762); assay: [Ca2+]i by fura-2 in HCC1569 spheroids; type: cell-based; details: AP-18, 300 nM A-967079 or 5 mM NAC
T1 construct: endogenous in cells; host or cells: HCC1569 breast cancer cells (2D culture or 3D spheroids; shGFP or shTRPA1 transduced)
T1 sequence (O75762 whole entry): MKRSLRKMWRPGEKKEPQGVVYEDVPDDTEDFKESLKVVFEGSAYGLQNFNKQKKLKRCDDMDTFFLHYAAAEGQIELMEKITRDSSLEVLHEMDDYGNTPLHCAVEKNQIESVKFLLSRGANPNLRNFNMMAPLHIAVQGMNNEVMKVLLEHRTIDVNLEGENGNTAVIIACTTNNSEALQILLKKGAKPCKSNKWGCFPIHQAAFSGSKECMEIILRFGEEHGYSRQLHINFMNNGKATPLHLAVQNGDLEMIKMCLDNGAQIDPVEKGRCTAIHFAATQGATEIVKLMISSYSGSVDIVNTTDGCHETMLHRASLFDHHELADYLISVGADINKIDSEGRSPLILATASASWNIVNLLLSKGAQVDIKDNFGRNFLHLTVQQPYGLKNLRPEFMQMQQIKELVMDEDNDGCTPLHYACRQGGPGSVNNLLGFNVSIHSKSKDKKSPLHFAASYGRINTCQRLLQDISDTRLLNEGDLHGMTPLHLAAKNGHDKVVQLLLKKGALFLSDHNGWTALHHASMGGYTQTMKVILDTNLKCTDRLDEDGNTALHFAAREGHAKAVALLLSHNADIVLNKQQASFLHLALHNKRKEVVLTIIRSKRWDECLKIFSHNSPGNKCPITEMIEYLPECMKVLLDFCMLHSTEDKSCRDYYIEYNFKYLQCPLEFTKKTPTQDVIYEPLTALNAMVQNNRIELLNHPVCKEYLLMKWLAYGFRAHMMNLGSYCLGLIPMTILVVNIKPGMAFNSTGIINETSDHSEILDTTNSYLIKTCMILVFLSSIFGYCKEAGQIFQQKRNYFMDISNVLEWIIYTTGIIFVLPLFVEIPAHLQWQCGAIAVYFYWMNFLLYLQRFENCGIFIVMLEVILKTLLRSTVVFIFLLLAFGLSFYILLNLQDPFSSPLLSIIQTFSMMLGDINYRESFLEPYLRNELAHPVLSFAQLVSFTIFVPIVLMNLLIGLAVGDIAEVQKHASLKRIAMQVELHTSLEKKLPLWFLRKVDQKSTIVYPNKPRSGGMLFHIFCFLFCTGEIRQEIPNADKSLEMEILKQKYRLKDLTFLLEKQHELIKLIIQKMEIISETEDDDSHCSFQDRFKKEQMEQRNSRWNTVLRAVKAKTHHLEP
Procedure: (§2) For the measurement of [Ca^2+]i levels in cells cultured in 2D or 3D (in Matrigel), cells were stained with 3.5 μM fura-2-AM (Life Technology) in the presence of 2.5 mM probenecid (Sigma) and 0.02% Pluronic F-127 (Sigma) for 45 min at 37° C. The fura-2 fluorescence was measured in HBS solution containing 1.25 mM probenecid at 37° C. Fluorescence images of the cells were acquired through the Eclipse Ti-E microscope with ORCA-R2 cooled CCD camera and analyzed with Metafluor. The 340:380-nm ratio images were obtained on a pixel-by-pixel basis and were converted to Ca^2+ concentrations by in vivo calibration using 5 μM ionomycin as described previously (Nishida et al., Biochem. Biophys. Res. Commun., 262:350-354, 1999). 3D images are shown as one section from midstructure. For the measurement of [Ca^2+]i levels in cells cultured in suspension, cell clumps were dissociated with trypsin and [Ca^2+]i levels were determined by using Fluo-4 NW Calcium Assay Kit (Molecular Probes). Cells were stained with Fluo-4 according to the manufacturer's instructions and subjected to flow cytometric analysis (FACSCalibur) using HBS as sheath fluid. [Ca^2+]i levels determined by flow cytometry are reported as mean fluorescence intensity expressed in arbitrary units. Time courses of [Ca^2+]i rises in 2D culture are representative of three independent experiments and averaged Δ[Ca^2+]i represents mean±SEM from the sum of three independent experiments. Fura-2 ratio images in 3D culture are representative of two independent experiments and averaged [Ca^2+]i in 3D culture represents mean±SEM from the sum of two independent experiments.

MCF-10A acini = assay: [H2O2]i by Hyper-2 in MCF-10A 3D acini; type: cell-based
Procedure: as §1

TRPA1 [2] = assay: [Ca2+]i by fura-2 in TRPA1-expressing MCF-10A 3D acini; type: cell-based; details: inner ECM-deprived region of MCF-10A acini
Procedure: as §2

HCC1569 cells [3] = assay: Soft agar anchorage-independent growth of HCC1569 cells; type: cell-based
Procedure: (§3) Cells were added to the regular MCF-10A or HCC1569 growth media (±AP-18, A-967079, or Trolox) plus 0.4% low-melt agarose (Sigma) and layered onto a bed of growth media plus 0.5% low-melt agarose. Cells were fed every 4 days with growth media (±AP-18, A-967079, or Trolox) plus 0.4% low-melt agarose. At the indicated times, viable colonies were stained with iodonitrotetrazolium chloride (Sigma). Colony number and colony size were determined using ImageJ. Images shown are representative of at least three independent experiments.

TRPA1 [4] = target: T1, TRPA1; assay: Ca2+ responses to carboplatin in HCC1569 cells; type: cell-based; details: 10 μM AP-18 or 300 nM A-967079
Procedure: as §2

HCC1569 cells [5] = assay: Live cell number and cell death under carboplatin in HCC1569 cells; type: cell-based; details: carboplatin 72 h
Procedure: For the measurements of live cell number and cell death under treatment with H2O2, diamide, or chemotherapies, cells were cultured on 96-well plates in the presence or absence of these drugs for indicated times and stained with 5 μM bisBenzimide H 33342 trihydrochloride (Hoechst; Sigma) and 5 μM propidium iodide (PI; Sigma) for 1 h at 37° C. Hoechst- and/or PI-positive cells were counted using a laser scanning cytometer, Acumen Cellista (TTPLabTech). Apoptotic cells induced by H2O2 treatment were measured by staining with Annexin V-Alexa Fluor® 488 conjugate (Life Technologies) and PI in Ca^2+-containing solution (10 mM HEPES pH 7.4, 140 mM NaCl; 2.5 mM CaCl2), followed by flow cytometric measurement of fluorescence using a FACSCalibur. Flow cytometry plots are representative of three independent experiments. For the counting of viable cells cultured in suspension, cell clumps were dissociated with trypsin and stained with trypan blue. Viable cells were counted using the Countless Automated Cell Counters (Thermo Fisher Scientific). For the measurement of percentage of dead cells cultured in suspension, cells were cultured on poly HEMA-coated 96-well plates and stained with 5 μM Hoechst and 5 μM PI for 1 h at 37° C. without enzymatic dissociation of cell clumps. Hoechst- and/or PI-positive areas were measured using Acumen Cellista. Apoptotic cells induced by detachment were measured by staining with 5 μM Hoechst and 5 μM of CellEvent™ Caspase-3/7 Green Detection Reagent (Thermo Fisher Scientific) for 1 h at 37° C. without enzymatic dissociation of cell clumps. Hoechst- and/or CellEvent™ Caspase-3/7 Green Detection Reagent-positive areas were measured using Acumen Cellista. For the cell cycle analysis, enzymatically dissociated cells were fixed with ice-cold 70% EtOH for at least 30 min at 4° C., washed three times with PBS at 4° C., resuspended in PBS, treated with 100 μg/ml RNase A (Sigma), and stained with 50 μg/ml PI. The stained samples were subjected to flow cytometric analysis (FACSCalibur).

[6] = in vivo; cited from earlier work
[7] = tested on: EL-12-58 xenograft tumors; assay: EL-12-58 xenograft tumor growth in NRG mice; type: in vivo
MCF-10A cells = assay: [H2O2]i by peroxy green-1 flow cytometry in ECM-detached MCF-10A cells; type: cell-based; details: 1 mM NAC; 24 h after plating in non-adherent plates
Procedure: as §1

TRPA1 [8] = target: T1, TRPA1; assay: [Ca2+]i by Fluo-4 flow cytometry in ECM-detached TRPA1-expressing MCF-10A cells; type: cell-based; details: 1 mM NAC; 24 h after plating in non-adherent plates
Procedure: as §2, with “Time courses of [Ca^2+]i rises in 2D culture are representative of three independent experiments and averaged Δ[Ca^2+]i represents mean±SEM from the sum of three independent experiments. Fura-2 ratio images in 3D culture are representative of two independent experiments and averaged [Ca^2+]i in 3D culture represents mean±SEM from the sum of two independent experiments.” left out

[9] = tested on: MCF-10A cells expressing HER2; assay: Soft agar colony formation of MCF-10A cells expressing HER2; type: cell-based
Procedure: as §3

[10] = Weight loss of EL-12-58 xenograft animals; type: in vivo, mice; details: mean±SD
Procedure: (§4) All animal studies were performed according to protocols approved by the Institutional Animal Care and Use Committee, the Standing Committee on Animals at Harvard University. One million HCC1569 cells stably expressing either TRPA1 or GFP (control) shRNAs were injected into cleared mammary fatpads of 8-week-old female NOD-Rag1^null IL2rg^null (NRG) mice. Tumor volume (mm^3) was monitored by caliper measurements in two perpendicular dimensions (the formula: (d^2×D)/2, where d and D represent the shortest and longest diameters, respectively) at the indicated time points. After tumors reached 3 to 5 mm in diameter, animals were randomized into the following treatment arms: (i) 37.5 mg/kg carboplatin or (ii) its vehicle (H2O) administrated via intraperitoneal injection for HCC1569 cell-transplanted animals; (i) oral administration of 30.0 mg/kg AM-0902, (ii) intraperitoneal administration of 37.5 mg/kg carboplatin, (iii) oral administration of 30.0 mg/kg AM-0902 plus intraperitoneal administration of 37.5 mg/kg carboplatin, or (iv) oral administration of 1% Tween 80/2% HPMC/97% water/methanesulfonic acid pH 2.2 (vehicle for AM-0902) plus intraperitoneal administration of H2O (vehicle for carboplatin) for EL-12-58 cell-transplanted animals. Power calculations are based on the standard deviation and effect size from pilot experiments in HCC1569 cells. The sample size of seven mice per group provides greater than 95% power to detect a ˜80% difference in change in tumor volume between control and shTRPA1-treated cells with a two-sided type I error rate of 5%. Averaged tumor volume represents mean±SEM.

HCC1569 cells [11] = assay: HCC1569 xenograft tumor growth in NRG mice; type: in vivo
Procedure: as §4, with “The sample size of seven mice per group provides greater than 95% power to detect a ˜80% difference in change in tumor volume between control and shTRPA1-treated cells with a two-sided type I error rate of 5%. Averaged tumor volume represents mean±SEM.” left out
Unstained breast cancer and normal breast tissue arrays were purchased from US Biomax (BR1504a for breast tumors, BN08111 for normal breast tissues). […] Tumor slides stained for TRPA1, blinded and were evaluated by light microscopy and scored by a veterinary pathologist. Images of tissue sections were captured at 4× magnification to create a merged image of the entire section and at 20× magnification for quantification of cleaved caspase-3-positive nuclei, using a Olympus VS120 Slide Scanner. […] Relative apoptosis was quantified by determining the percentage of cleaved caspase-3-positive cells from more than five random fields, per section, from each tumor in the group, and normalized to the shGFP-expressing tumors treated with vehicle. […]

HCC1569 cells [12] = details: cited from earlier work

Compound: CCC(=N\O)/C(C)=C/c1ccc(F)cc1 [A-967079]
- increase in [H2O2]i (Hyper-2) in inner region of spheroids (HCC1569 spheroids): unaffected
- elevated [Ca2+]i of inner cells of spheroids (TRPA1 [1]): suppressed
- increase in [H2O2]i (Hyper-2) in inner ECM-deprived cells (MCF-10A acini): unaffected
- TRPA1- or E681K-induced [Ca2+]i rises (TRPA1 [2]): abolished
- anchorage-independent growth (number and average size of colonies) (HCC1569 cells [3]): impaired
- [Ca2+]i rises upon carboplatin treatment (TRPA1 [4]): significantly suppressed
- oscillatory Ca2+ responses upon carboplatin treatment (TRPA1 [4]): significantly suppressed
- cell death in response to carboplatin treatment (HCC1569 cells [5]): enhanced
- live cell number in response to carboplatin treatment (HCC1569 cells [5]): substantially suppressed

Compound: Cn1cnc2ncn(Cc3nc(CCc4ccc(Cl)cc4)no3)c(=O)c21 [AM-0902]
- plasma half-life (T1/2) [6]: 2.8 h
- tumor volume / tumor growth ([7]; AM-0902 30.0 mg/kg oral twice daily, carboplatin 37.5 mg/kg intraperitoneal): reduced
- tumor mass ([7]; at end point, AM-0902 30.0 mg/kg oral twice daily, carboplatin 37.5 mg/kg intraperitoneal): reduced
- live tumor cell area relative to total area (H&E) ([7]; compared with vehicle or single carboplatin treatment): reduced

Compound: CC(=O)N[C@@H](CS)C(=O)O [NAC, N-Acetyl-L-cysteine]
- increase in [H2O2]i (Hyper-2) in inner region of spheroids (HCC1569 spheroids): abolished
- elevated [Ca2+]i of inner cells of spheroids (TRPA1 [1]): suppressed
- increase in [H2O2]i (Hyper-2) in inner ECM-deprived cells (MCF-10A acini): abolished
- TRPA1- or E681K-induced [Ca2+]i rises (TRPA1 [2]): abolished
- detachment-induced increase in [H2O2]i (MCF-10A cells): suppressed
- detachment-induced TRPA1-dependent increase in [Ca2+]i (TRPA1 [8]): abolished
- TRPA1-mediated chemoresistance to carboplatin (HCC1569 cells [5]; 5 mM NAC): largely eliminated

Compound: Cc1c(C)c2c(c(C)c1O)CCC(C)(C(=O)O)O2 (stereo not drawn) [Trolox]
- colony number and size ([9]; Trolox treatment): strongly increased
- TRPA1-induced increase in number and average size of colonies ([9]; wild-type or E681K TRPA1 expression): eliminated

Compound: N.N.O=C([O-])C1(C(=O)[O-])CCC1.[Pt+2] [carboplatin]
- averaged weight loss ([10]; day 26): 3.94±1.02%
- averaged weight loss ([10]; day 29): 7.01±2.80%
- averaged weight loss ([10]; day 32): 10.3±3.36%
- tumor response to carboplatin (HCC1569 cells [11]; tumors expressing shGFP (control), 37.5 mg/kg carboplatin intraperitoneal twice a week): resistant
- tumor growth after carboplatin treatment (HCC1569 cells [11]; tumors expressing shTRPA1, 37.5 mg/kg carboplatin intraperitoneal twice a week): significant reduction
- apoptosis (cleaved caspase-3 staining of tumor sections) (HCC1569 cells [11]; tumors expressing shTRPA1, carboplatin treatment): increased

Compound: N.N.[Cl][Pt][Cl] [cisplatin]
- Resistance rank among 893 cancer cell lines (HCC1569 cells [12]): 45
- resistance z-score (HCC1569 cells [12]): 1.54
